Data from ChEMBL document CHEMBL1201862, “PubChem BioAssay data set” (2004).
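In this assay, cells in 96-well plates receive the compound at five concentrations for 48 hours. Endpoints are linearly interpolated between the surrounding concentrations. Abbreviation: GI50, concentration required for 50% inhibition of growth.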 The source made the active and inactive calls. Cut-off read from the data, not from the text of the source: active = GI50 up to about 1.1 µM and inactive = higher.

Tests used:
Assay in all cases: DTP human tumour cell line panel, 48 h
NCI-H23 = test system: NCI-H23
NCI-H460 = test system: NCI-H460
HT-29 = test system: HT-29
HL-60 = test system: HL-60
A549 = test system: A549
UO-31 = test system: UO-31
Malme-3M = test system: Malme-3M
OVCAR-4 = test system: OVCAR-4
KM12 = test system: KM12
MOLT-4 = test system: MOLT-4
RXF 393 = test system: RXF 393
HCC 2998 = test system: HCC 2998
TK-10 = test system: TK-10
SK-OV-3 = test system: SK-OV-3
786-0 = test system: 786-0
CCRF-CEM = test system: CCRF-CEM
LOX IMVI = test system: LOX IMVI
SNB-19 = test system: SNB-19
OVCAR-3 = test system: OVCAR-3

Compound	GI50 (NCI-H23)	GI50 (NCI-H460)	GI50 (HT-29)	GI50 (HL-60)	GI50 (A549)	GI50 (UO-31)	GI50 (Malme-3M)	GI50 (OVCAR-4)	GI50 (KM12)	GI50 (MOLT-4)	GI50 (RXF 393)	GI50 (HCC 2998)	GI50 (TK-10)	GI50 (SK-OV-3)	GI50 (786-0)	GI50 (CCRF-CEM)	GI50 (LOX IMVI)	GI50 (SNB-19)	GI50 (OVCAR-3)
Cc1ccc(C2=Nc3ccccc3[S+]([O-])C(c3ccc4c(c3)OCO4)C2)cc1 (stereo not drawn)	15.3 µM (inactive)	> 10 µM (inactive)	17.7 µM (inactive)	19.1 µM (inactive)	28.6 µM (inactive)	40.8 µM (inactive)	33.8 µM (inactive)	29.3 µM (inactive)	18.2 µM (inactive)	23.9 µM (inactive)	16.9 µM (inactive)	> 10 µM (inactive)	44.7 µM (inactive)	42.6 µM (inactive)	19.9 µM (inactive)	26.2 µM (inactive)	15.9 µM (inactive)	58.7 µM (inactive)	27.7 µM (inactive)
O=C(CSc1nnc(Cc2ccccc2)o1)Nc1ccc(Cl)cc1Cl	> 100 µM (inactive)	> 100 µM (inactive)	> 100 µM (inactive)	> 100 µM (inactive)	> 100 µM (inactive)	> 100 µM (inactive)	> 100 µM (inactive)	> 100 µM (inactive)	> 100 µM (inactive)	> 100 µM (inactive)	> 100 µM (inactive)	> 100 µM (inactive)	> 100 µM (inactive)	> 100 µM (inactive)	> 100 µM (inactive)	> 100 µM (inactive)	> 100 µM (inactive)	> 100 µM (inactive)	> 100 µM (inactive)
Nc1nncc2c1c(Br)cn2C1OC(CO)C(O)C1O (stereo not drawn)	10.9 µM (inactive)	28.8 µM (inactive)	8.39 µM (inactive)	3.73 µM (inactive)	31.7 µM (inactive)	> 37.9 µM (inactive)	> 79.1 µM (inactive)	> 52.7 µM (inactive)	43.9 µM (inactive)	2.91 µM (inactive)	30.8 µM (inactive)	5.27 µM (inactive)	51.4 µM (inactive)	> 96.6 µM (inactive)	21.1 µM (inactive)	2.33 µM (inactive)	5.74 µM (inactive)	64.3 µM (inactive)	6.62 µM (inactive)
CC(=O)c1c(O)c2c([nH]c1=O)CCCC2	41.1 µM (inactive)	6.84 µM (inactive)	24.2 µM (inactive)	48.3 µM (inactive)	30 µM (inactive)	17.2 µM (inactive)	> 100 µM (inactive)	> 100 µM (inactive)		8.34 µM (inactive)	22.3 µM (inactive)	8.05 µM (inactive)	> 100 µM (inactive)	25.6 µM (inactive)	> 100 µM (inactive)	> 100 µM (inactive)	20.1 µM (inactive)	18 µM (inactive)	> 100 µM (inactive)
O=C(/C=C\c1ccccc1O)c1ccc(O)cc1O	> 100 µM (inactive)	> 100 µM (inactive)	> 100 µM (inactive)	81.8 µM (inactive)	> 100 µM (inactive)	> 100 µM (inactive)	> 100 µM (inactive)	54.6 µM (inactive)	> 100 µM (inactive)	> 100 µM (inactive)	> 100 µM (inactive)	> 100 µM (inactive)	> 100 µM (inactive)	> 100 µM (inactive)	> 100 µM (inactive)	87.7 µM (inactive)	> 100 µM (inactive)	> 100 µM (inactive)	> 100 µM (inactive)
COc1cc2cccc(/N=C\c3ccccc3Cl)c2cc1OC	> 100 µM (inactive)	> 100 µM (inactive)	79.6 µM (inactive)	4.48 µM (inactive)	> 100 µM (inactive)	> 100 µM (inactive)	> 100 µM (inactive)	> 100 µM (inactive)	> 100 µM (inactive)	> 100 µM (inactive)	> 100 µM (inactive)	> 100 µM (inactive)	> 100 µM (inactive)	> 100 µM (inactive)	> 100 µM (inactive)	22.8 µM (inactive)	70.3 µM (inactive)	> 100 µM (inactive)	> 100 µM (inactive)
O=C(Cc1ccccc1)N/N=C(/c1nc2ccc([N+](=O)[O-])cc2nc1O)C(O)c1ccc(C(O)/C(=N/NC(=O)Cc2ccccc2)c2nc3ccc([N+](=O)[O-])cc3nc2O)cc1 (stereo not drawn)	> 100 µM (inactive)		53.8 µM (inactive)	7.01 µM (inactive)	50.9 µM (inactive)		> 100 µM (inactive)	> 100 µM (inactive)			> 100 µM (inactive)	27 µM (inactive)	48.1 µM (inactive)	> 100 µM (inactive)	> 100 µM (inactive)	7.26 µM (inactive)	12.1 µM (inactive)	> 100 µM (inactive)	20.7 µM (inactive)
N#Cc1nc(C2OC(COC(=O)c3ccccc3)C(OC(=O)c3ccccc3)C2OC(=O)c2ccccc2)oc1N (stereo not drawn)	19.1 µM (inactive)	76.4 µM (inactive)	9.16 µM (inactive)	7.03 µM (inactive)	26.4 µM (inactive)	12 µM (inactive)	84.3 µM (inactive)	10.8 µM (inactive)	18.3 µM (inactive)	5.6 µM (inactive)	14.7 µM (inactive)	35.6 µM (inactive)	63.5 µM (inactive)	> 100 µM (inactive)	27 µM (inactive)	3.18 µM (inactive)	67.1 µM (inactive)	> 100 µM (inactive)	34.1 µM (inactive)
Cc1ccc([N+](=O)[O-])cc1NC(=O)/C(CC(=O)c1sc(C(N)=S)nc1C)=N\N	31.7 µM (inactive)	35.1 µM (inactive)	72.3 µM (inactive)	43.9 µM (inactive)	46.2 µM (inactive)	48.1 µM (inactive)	> 100 µM (inactive)	31.6 µM (inactive)	54.1 µM (inactive)	68.5 µM (inactive)	> 100 µM (inactive)	> 100 µM (inactive)	> 100 µM (inactive)	44.1 µM (inactive)	40.6 µM (inactive)	26.9 µM (inactive)	> 100 µM (inactive)	> 100 µM (inactive)	26.9 µM (inactive)
CCN(CC)c1cccc2c1C1(O)CCC3(CC21)OCCCCO3 (stereo not drawn)	> 100 µM (inactive)	53.2 µM (inactive)	33.3 µM (inactive)	> 100 µM (inactive)	49 µM (inactive)	> 100 µM (inactive)	> 100 µM (inactive)	> 100 µM (inactive)	57.8 µM (inactive)	> 100 µM (inactive)	15.3 µM (inactive)	> 100 µM (inactive)	> 100 µM (inactive)	71.9 µM (inactive)	74 µM (inactive)	90.4 µM (inactive)	50.8 µM (inactive)	18 µM (inactive)	84.9 µM (inactive)
N#CC1(C2CC(=O)N(c3ccccc3)C2=O)CCCCC1=O (stereo not drawn)	> 100 µM (inactive)	> 100 µM (inactive)	> 100 µM (inactive)	> 100 µM (inactive)	> 100 µM (inactive)	> 100 µM (inactive)	0.498 µM (active)	> 100 µM (inactive)	> 100 µM (inactive)	> 100 µM (inactive)	> 100 µM (inactive)	0.104 µM (active)	> 100 µM (inactive)	> 100 µM (inactive)	> 100 µM (inactive)	> 100 µM (inactive)	> 100 µM (inactive)	> 100 µM (inactive)	> 100 µM (inactive)
COc1cc(C(=O)NO)ccc1O	> 100 µM (inactive)	> 100 µM (inactive)	> 100 µM (inactive)	> 100 µM (inactive)	> 100 µM (inactive)	> 100 µM (inactive)	> 100 µM (inactive)	> 100 µM (inactive)	> 100 µM (inactive)	> 100 µM (inactive)	> 100 µM (inactive)	> 100 µM (inactive)	> 100 µM (inactive)	> 100 µM (inactive)	> 100 µM (inactive)	> 100 µM (inactive)	> 100 µM (inactive)	> 100 µM (inactive)	> 100 µM (inactive)
CC(=O)c1ccc(NC(=O)C(=O)Nn2c(S)nc3ccccc3c2=O)cc1	> 100 µM (inactive)	> 100 µM (inactive)	> 100 µM (inactive)	> 100 µM (inactive)	> 100 µM (inactive)	> 100 µM (inactive)	> 100 µM (inactive)	> 100 µM (inactive)	> 100 µM (inactive)	> 100 µM (inactive)	> 100 µM (inactive)	> 100 µM (inactive)	> 100 µM (inactive)	> 100 µM (inactive)	> 100 µM (inactive)		> 100 µM (inactive)	> 100 µM (inactive)	> 100 µM (inactive)
CC(=O)c1cccc(NC(=O)/C(=N\NC(C)(C)C)c2c(O)c3ccccc3oc2=O)c1	> 100 µM (inactive)	> 100 µM (inactive)	53.2 µM (inactive)	> 100 µM (inactive)	> 100 µM (inactive)	> 100 µM (inactive)	> 100 µM (inactive)	> 100 µM (inactive)	> 100 µM (inactive)	> 100 µM (inactive)	> 100 µM (inactive)	> 100 µM (inactive)	> 100 µM (inactive)	> 100 µM (inactive)	> 100 µM (inactive)	> 100 µM (inactive)	> 100 µM (inactive)	> 100 µM (inactive)	> 100 µM (inactive)
N#CCc1ccc(C(C#N)/C(CCCC(=O)Nc2cccc([N+](=O)[O-])c2)=N\NC(=O)NN)cc1 (stereo not drawn)	> 100 µM (inactive)	> 100 µM (inactive)	> 100 µM (inactive)	> 100 µM (inactive)	> 100 µM (inactive)	> 100 µM (inactive)	> 100 µM (inactive)	> 100 µM (inactive)	> 100 µM (inactive)	> 100 µM (inactive)	> 100 µM (inactive)	> 100 µM (inactive)	> 100 µM (inactive)	> 100 µM (inactive)	> 100 µM (inactive)	> 100 µM (inactive)		> 100 µM (inactive)	> 100 µM (inactive)
